The source made the active and inactive calls. No cut-off for these calls is given here.
What was measured:
[1] = system: PC-12; experiment: Cytoprotective activity against t-BPH-induced cell damage in rat PC12 cells assessed as cell viability at 1.6 uM; type: functional, cell-based
[2] = system: PC-12; experiment: Neuroprotective activity in t-BHP-induced damage in rat PC12 cells assessed as induction of Hsp70 expression by Western blotting; type: functional, cell-based
[3] = system: PC-12; experiment: Cytoprotective activity in rat PC12 cells assessed as protection against t-BHP-induced cell damage at 0.4 uM; type: functional
[4] = Antitumor activity against mouse SW1 cells; type: functional, cell-based
[5] = organism: Rattus norvegicus; experiment: Cytoprotective activity against H2O2-induced damage in rat RINm cells; type: functional, cell-based
[6] = system: LNCaP; experiment: Antitumor activity against human LNCAP cells; type: functional, cell-based
[7] = system: PC-12; experiment: Cytoprotective activity against t-BPH-induced cell damage in rat PC12 cells assessed as cell viability; type: functional, cell-based
[8] = system: PC-12; experiment: Cytoprotective activity against t-BPH-induced cell damage in rat PC12 cells assessed as cell viability at 0.8 uM; type: functional, cell-based
[9] = system: PC-12; experiment: Cytoprotective activity against t-BPH-induced cell damage in rat PC12 cells assessed as cell viability at 0.1 uM; type: functional; conditions: read-out: Activity

CC1=C(O)/C(=N/O)C=C2C1=CC=C1[C@@]2(C)CC[C@@]2(C)[C@@H]3C[C@](C)(C(=O)O)CC[C@]3(C)CC[C@]12C
Activity [1]: Active

CC1=C(OC(=O)c2nc(C)c(C)nc2C)C(=O)C=C2C1=CC=C1[C@@]2(C)CC[C@@]2(C)[C@@H]3C[C@](C)(C(=O)O)CC[C@]3(C)CC[C@]12C
Activity [2]: Dose-dependent effect
Activity [3]: 76%

CCCOC(=O)[C@]1(C)CC[C@]2(C)CC[C@]3(C)C4=CC=C5C(=CC(=O)C(O)=C5C)[C@]4(C)CC[C@@]3(C)[C@@H]2C1
Activity [1]: Active

CC1=C(O)C(=O)C=C2C1=CC=C1[C@@]2(C)CC[C@@]2(C)[C@@H]3C[C@](C)(C(=O)OCc4ccccc4)CC[C@]3(C)CC[C@]12C
EC50 [4]: 0.3 µM

CC1=C(O)C(=O)C=C2C1=CC=C1[C@@]2(C)CC[C@@]2(C)[C@@H]3C[C@](C)(C(=O)N4CCN(C)CC4)CC[C@]3(C)CC[C@]12C
Activity [1]: Dose-dependent effect

CC1=C(OC(=O)CCCCC2CCSS2)C(=O)C=C2C1=CC=C1[C@@]2(C)CC[C@@]2(C)[C@@H]3C[C@](C)(C(=O)O)CC[C@]3(C)CC[C@]12C (some centres undefined)
Activity [5]: Active
Activity [3]: inactive

CC1=C(O)C(=O)C=C2C1=CC=C1[C@@]2(C)CC[C@@]2(C)[C@@H]3C[C@](C)(C(=O)O)CC[C@]3(C)CC[C@]12C [CELASTROL]
IC50 [6]: 2.5 µM
IC50 [7]: 3.15 µM
Activity [1]: Active
Activity [8]: inactive
viability at 0.1 µM [9]: 65%

COC(=O)[C@]1(C)CC[C@]2(C)CC[C@]3(C)C4=CC=C5C(=CC(=O)C(O)=C5C)[C@]4(C)CC[C@@]3(C)[C@@H]2C1 [PRISTIMERIN]
EC50 [4]: < 0.1 µM

— ChEMBL document CHEMBL1177804, “Synthesis and preliminary evaluation of neuroprotection of celastrol analogues in PC12 cells” (Bioorg Med Chem Lett, 2010)
